Reference: US20180250221A1, “GARDENIA EXTRACT FOR COLOURING THE SKIN” (PIERRE FABRE MEDICAMENT, priority 2015, published 2018)

Tested on: human skin explants
Assay: Colouring effect on human skin explants under survival conditions (ex vivo model)
Assay type: cell-based
Conditions: 72 hours, C-Cube Dermoscope colorimetric differences, four donors
Experimental: Owing to the lack of cell and animal pharmacological models, the inventors developed an ex vivo model in order to overcome the difficulties related to absorption of the active agents. Indeed, there is no absorption of crocin without intestinal hydrolysis first and low assimilation of crocetin and of these derivatives after passage.
The objective of this study was to evaluate the colouring effect of various extracts applied to human skin explants under survival conditions over 72 hours. Maintenance under survival conditions is carried out in 6-well culture plates containing culture medium. These culture plates are placed in an incubator at 37° C. with 5% CO2. The studies were carried out on four donors.
The colouring of each medium containing active agents or control is evaluated with the C-Cube Dermoscope (Clinical Edition) from Pixience SAS. The evaluation concerns the maximum colouring which can be obtained, i.e., the 100% level on the colour mapping scale relating to each active agent. The colouring of each explant is measured using the C-Cube Dermoscope (Clinical Edition). First, the explant is placed in a solution of medium with no active agent in order to rinse the explant of the active agent molecules present on the explant surface and which have not penetrated the skin. […]

For CC(/C=C/C=C(\C)C(=O)O)=C\C=C\C=C(C)\C=C\C=C(/C)C(=O)O [crocetin], the colouring strength was “high colouring strength”.
